# Laboratory results reported in patent US3940382A, “1,2'-Di-N-substituted kanamycin B compounds” (Zaidan Hojin Biseibutsu Kagaku Kenkyu Kai, priority 1973, dated 1976).
# Like-named read-outs stand apart in the source and are kept apart here.
# How the values were obtained:
# Bacillus anthracis = assay: microbe, parasite or virus in culture; format: cell-based; settings: 18 h, read-out: Minimum Inhibitory Concentrations
# Escherichia coli NIHJ = assay: MIC, serial dilution on nutrient agar; format: cell-based; settings: Escherichia coli, 18 h, read-out: Minimum Inhibitory Concentrations
# [1] = system: Escherichia coli LA290 R56; assay: MIC, serial dilution on nutrient agar; format: cell-based; settings: LA290R56, 18 h, read-out: Minimum Inhibitory Concentrations
# [2] = system: Pseudomonas aeruginosa No.12; assay: MIC, serial dilution on nutrient agar; format: cell-based; settings: read-out: Minimum Inhibitory Concentrations
# [3] = system: Escherichia coli LA290 R55; assay: MIC, serial dilution on nutrient agar; format: cell-based; settings: LA290R55, 18 h, read-out: Minimum Inhibitory Concentrations
# [4] = system: Staphylococcus aureus FDA 209P; assay: MIC, serial dilution on nutrient agar; format: cell-based; settings: Staphylococcus aureus, FDA209P, 18 h, read-out: Minimum Inhibitory Concentrations
# [5] = system: Staphylococcus aureus Smith; assay: MIC, serial dilution on nutrient agar; format: cell-based; settings: read-out: Minimum Inhibitory Concentrations
# [6] = system: Escherichia coli K-12 ML 1410; assay: MIC, serial dilution on nutrient agar; format: cell-based; settings: Escherichia coli, K12ML1410, 18 h, read-out: Minimum Inhibitory Concentrations
# [7] = system: Klebsiella pneumoniae PCI 602; assay: MIC, serial dilution on nutrient agar; format: cell-based; settings: Klebsiella pneumoniae, PCI602, 18 h, read-out: Minimum Inhibitory Concentrations
# [8] = system: Corynebacterium bovis 1810; assay: MIC, serial dilution on nutrient agar; format: cell-based; settings: Corynebacterium bovis, 1810, 18 h, read-out: Minimum Inhibitory Concentrations
# [9] = system: Mycobacterium smegmatis ATCC 607; assay: MIC, serial dilution on nutrient agar; format: cell-based; settings: Mycolicibacterium smegmatis, read-out: Minimum Inhibitory Concentrations
# [10] = system: Escherichia coli K-12 ML 1629; assay: MIC, serial dilution on nutrient agar; format: cell-based; settings: Escherichia coli, K12ML1629, 18 h, read-out: Minimum Inhibitory Concentrations
# [11] = system: Escherichia coli LA290 R64; assay: MIC, serial dilution on nutrient agar; format: cell-based; settings: LA290R64, 18 h, read-out: Minimum Inhibitory Concentrations
# [12] = system: Pseudomonas aeruginosa TI-13; assay: MIC, serial dilution on nutrient agar; format: cell-based; settings: read-out: Minimum Inhibitory Concentrations
# Proteus vulgaris OX 19 = assay: MIC, serial dilution on nutrient agar; format: cell-based; settings: Proteus vulgaris, OX19, 18 h, read-out: Minimum Inhibitory Concentrations
# Sarcina lutea PCI 1001 = assay: MIC, serial dilution on nutrient agar; format: cell-based; settings: Micrococcus luteus, PCI1001, 18 h, read-out: Minimum Inhibitory Concentrations
# [13] = system: Escherichia coli JR66/W677; assay: MIC, serial dilution on nutrient agar; format: cell-based; settings: Escherichia coli, JR66/W677, 18 h, read-out: Minimum Inhibitory Concentrations
# [14] = system: Bacillus subtilis NRRL B-558; assay: MIC, serial dilution on nutrient agar; format: cell-based; settings: read-out: Minimum Inhibitory Concentrations
# [15] = system: Staphylococcus aureus Terejima; assay: MIC, serial dilution on nutrient agar; format: cell-based; settings: read-out: Minimum Inhibitory Concentrations
# [16] = system: Bacillus subtilis PCI 219; assay: MIC, serial dilution on nutrient agar; format: cell-based; settings: read-out: Minimum Inhibitory Concentrations
# Escherichia coli K-12 = assay: MIC, serial dilution on nutrient agar; format: cell-based; settings: Escherichia coli, K12, 18 h, read-out: Minimum Inhibitory Concentrations
# [17] = system: Salmonella enteritidis 1891; assay: MIC, serial dilution on nutrient agar; format: cell-based; settings: Salmonella enterica, ENTERITIDIS, 18 h, read-out: Minimum Inhibitory Concentrations
# Escherichia coli W677 = assay: MIC, serial dilution on nutrient agar; format: cell-based; settings: read-out: Minimum Inhibitory Concentrations
# [18] = system: Pseudomonas aeruginosa GN315; assay: MIC, serial dilution on nutrient agar; format: cell-based; settings: read-out: Minimum Inhibitory Concentrations
# [19] = system: Shigella dysenteriae JS 11910; assay: MIC, serial dilution on nutrient agar; format: cell-based; settings: JS11910, 18 h, read-out: Minimum Inhibitory Concentrations
# Salmonella typhosa T-63 = assay: MIC, serial dilution on nutrient agar; format: cell-based; settings: Salmonella enterica, 18 h, read-out: Minimum Inhibitory Concentrations
# [20] = system: Shigella flexneri 4b JS 11811; assay: MIC, serial dilution on nutrient agar; format: cell-based; settings: 4BJS11811, 37°C, 18 hours, read-out: Minimum Inhibitory Concentrations
# Description: (§1) The minimum inhibitory concentrations (mcg/ml) of 1,2'-di-N-[(S)-4-amino-2-hydroxybutyryl]-kanamycin B (abbreviated as 1,2'-AHB-KMB), 1,2'-di-N-[(S)-4-amino-2-hydroxybutyryl]-3',4'-dideoxykanamycin B (abbreviated as 1,2'-AHB-DKB), 1,2'-di-N-DL-isoseryl-3',4'-dideoxykanamycin B (abbreviated as 1,2'-IS-DKB) and 1,2'-di-N-DL-isoseryl-kanamycin B (abbreviated as 1,2'-IS-KMB) against various microorganisms were determined according to serial dilution method using nutrient agar medium at 37°C, the estimation being effected after 18 hours incubation. For comparison, the minimum inhibitory concentrations of kanamycin B (abbreviated as KMB) and 3',4'-dideoxykanamycin B (abbreviated as DKB) were also determined in the same manner as mentioned above.
# [21] = system: Escherichia coli K-12 ML 1630; assay: MIC, serial dilution on nutrient agar; format: cell-based; settings: K12ML1630, 37°C, 18 hours, read-out: Minimum Inhibitory Concentrations
# Description: as §1
# Shigella sonnei JS 11746 = assay: MIC, serial dilution on nutrient agar; format: cell-based; settings: JS11746, 37°C, 18 hours, read-out: Minimum Inhibitory Concentrations
# Description: as §1
# [22] = system: Pseudomonas aeruginosa A3; assay: MIC, serial dilution on nutrient agar; format: cell-based; settings: Pseudomonas aeruginosa, A3, 18 h, read-out: Minimum Inhibitory Concentrations
# [23] = system: Pseudomonas aeruginosa 99; assay: MIC, serial dilution on nutrient agar; format: cell-based; settings: read-out: Minimum Inhibitory Concentrations
# [24] = system: Bacillus cereus ATCC 10702; assay: MIC, serial dilution on nutrient agar; format: cell-based; settings: Bacillus cereus, ATCC10702, 18 h, read-out: Minimum Inhibitory Concentrations
# [25] = system: Escherichia coli K-12 ML 1410 R81; assay: MIC, serial dilution on nutrient agar; format: cell-based; settings: 18 h, read-out: Minimum Inhibitory Concentrations
# [26] = system: Klebsiella pneumoniae 22 -3038; assay: MIC, serial dilution on nutrient agar; format: cell-based; settings: Klebsiella pneumoniae, 223038, 18 h, read-out: Minimum Inhibitory Concentrations
# [27] = system: gram-negative and gram-positive bacteria sensitive to the kanamycins; settings: cited from earlier work
# drug-resistant bacteria = settings: cited from earlier work
# [28] = system: Escherichia coli JR66/W677; settings: strain adenylylating the 2"-hydroxyl group; cited from earlier work
# [29] = system: kanamycin-resistant strains; settings: strains phosphorylating the 3'-hydroxyl group of kanamycins; cited from earlier work
SMILES,MIC (Bacillus anthracis) [µg/mL],MIC (Escherichia coli NIHJ) [µg/mL],MIC [1] [µg/mL],MIC [3] [µg/mL],MIC [4] [µg/mL],MIC [6] [µg/mL],MIC [7] [µg/mL],MIC [8] [µg/mL],MIC [10] [µg/mL],MIC [11] [µg/mL],MIC (Proteus vulgaris OX 19) [µg/mL],MIC (Sarcina lutea PCI 1001) [µg/mL],MIC [13] [µg/mL],MIC (Escherichia coli K-12) [µg/mL],MIC [17] [µg/mL],MIC [19] [µg/mL],MIC (Salmonella typhosa T-63) [µg/mL],MIC [20] [µg/mL],effectiveness against bacteria sensitive to the kanamycins [27],antibacterial activity against the drug-resistant bacteria (drug-resistant bacteria),other results
"NCC[C@H](O)C(=O)N[C@H]1[C@@H](O[C@H]2[C@H](O)[C@@H](O[C@H]3O[C@H](CO)[C@@H](O)[C@H](N)[C@H]3O)[C@H](NC(=O)[C@@H](O)CCN)C[C@@H]2N)O[C@H](CN)[C@@H](O)[C@@H]1O [1,2'-AHB-KMB, 1,2'-di-N-[(S)-4-amino-2-hydroxybutyryl]-kanamycin B]",0.39,6.25,1.56,3.13,6.25,3.13,3.13,3.13,3.13,1.56,3.13,6.25,6.25,3.13,3.13,12.5,3.13,12.5,,,"MIC ([2]; Pseudomonas aeruginosa No.12, nutrient agar, 37°C, 18 hours): 25 µg/mL; MIC ([5]; Staphylococcus aureus Smith, nutrient agar, 37°C, 18 hours): 0.39 µg/mL; MIC ([9]; ATCC607, Mycobacterium smegmatis ATCC 607, nutrient agar, 37°C, 18 hours): 0.78 µg/mL; MIC ([12]; TI13, Pseudomonas aeruginosa TI-13, nutrient agar, 37°C, 18 hours): 25 µg/mL; MIC ([14]; NRRLB558, Bacillus subtilis NRRL B-558, nutrient agar, 37°C, 18 hours): 0.78 µg/mL; MIC ([15]; Staphylococcus aureus Terejima, nutrient agar, 37°C, 18 hours): < 0.2 µg/mL; MIC ([16]; PCI219, Bacillus subtilis PCI 219, nutrient agar, 37°C, 18 hours): < 0.2 µg/mL; MIC (Escherichia coli W677; Escherichia coli W677, nutrient agar, 37°C, 18 hours): 1.56 µg/mL; MIC ([18]; Pseudomonas aeruginosa GN315, nutrient agar, 37°C, 18 hours): > 100 µg/mL; MIC [21]: 3.13 µg/mL; MIC (Shigella sonnei JS 11746): 6.25 µg/mL; MIC [22]: 12.5 µg/mL; MIC ([23]; Pseudomonas aeruginosa 99, nutrient agar, 37°C, 18 hours): 50 µg/mL; MIC [24]: 12.5 µg/mL; MIC [25]: 6.25 µg/mL; MIC [26]: 3.13 µg/mL"
"NCC(O)C(=O)N[C@@H]1C[C@H](N)[C@@H](O[C@H]2O[C@H](CN)CC[C@H]2N)[C@H](O)[C@H]1O[C@H]1O[C@H](CO)[C@@H](O)[C@H](N)[C@H]1O (stereo partly shown) [1-N-isoseryl-3',4'-dideoxykanamycin B]",,,,,,,,,,,,,,,,,,,effective,effective,
NCC(O)C(=O)N[C@@H]1C[C@H](N)[C@@H](O[C@H]2O[C@H](CN)[C@@H](O)[C@H](O)[C@H]2O)[C@H](O)[C@H]1O[C@H]1O[C@H](CO)[C@@H](O)[C@H](N)[C@H]1O (stereo partly shown) [1-N-isoserylkanamycin],,,,,,,,,,,,,,,,,,,effective,effective,
NCC(O)C(=O)N[C@@H]1C[C@H](N)[C@@H](O[C@H]2O[C@H](CN)[C@@H](O)[C@H](O)[C@H]2N)[C@H](O)[C@H]1O[C@H]1O[C@H](CO)[C@@H](O)[C@H](N)[C@H]1O (stereo partly shown) [1N-isoserylkanamycinB],,,,,,,,,,,,,,,,,,,effective,effective,
NC[C@H]1O[C@H](O[C@H]2[C@H](O)[C@@H](O[C@H]3O[C@H](CO)[C@@H](O)[C@H](N)[C@H]3O)[C@H](N)C[C@@H]2N)[C@H](O)C[C@@H]1O [3'-deoxykanamycin],,,,,,,,,,,,,,,,,,,,,activity against kanamycin-resistant strains such as Escherichia coli JR66/W677 [28]: practically inactive; effectiveness against kanamycin-resistant strains [29]: actually effective
"NC[C@H]1O[C@H](O[C@H]2[C@H](O)[C@@H](O[C@H]3O[C@H](CO)[C@@H](O)[C@H](N)[C@H]3O)[C@H](N)C[C@@H]2N)[C@H](N)[C@@H](O)[C@@H]1O [KMB, kanamycin B]",< 0.2,0.78,3.13,12.5,< 0.2,0.78,0.78,1.56,> 100,3.13,0.78,1.56,> 100,0.78,1.56,3.13,0.2,3.13,,,"MIC ([2]; Pseudomonas aeruginosa, NO.12, 18 h): 12.5 µg/mL; MIC ([5]; Staphylococcus aureus, 18 h): 0.39 µg/mL; MIC ([9]; ATCC607, 18 h): 0.78 µg/mL; MIC ([12]; Pseudomonas aeruginosa, TI13, 18 h): 100 µg/mL; MIC ([14]; Bacillus subtilis, NRRLB558, 18 h): < 0.2 µg/mL; MIC ([15]; Staphylococcus aureus, 18 h): < 0.2 µg/mL; MIC ([16]; Bacillus subtilis, PCI219, 18 h): < 0.2 µg/mL; MIC (Escherichia coli W677; Escherichia coli, W677, 18 h): 0.39 µg/mL; MIC ([18]; Pseudomonas aeruginosa, GN315, 18 h): > 100 µg/mL; MIC [21]: > 100 µg/mL; MIC (Shigella sonnei JS 11746): 1.56 µg/mL; MIC [22]: 50 µg/mL; MIC ([23]; Pseudomonas aeruginosa, 99, 18 h): > 100 µg/mL; MIC [24]: 0.78 µg/mL; MIC [25]: > 100 µg/mL; MIC [26]: > 100 µg/mL"
